Experimental findings from patent US20130203084A1, “SPECIFIC DETECTION OF HUMAN CHORIONIC GONADOTROPIN BETA SUBUNIT TYPE II PRODUCED BY TROPHOBLASTIC AND NEOPLASTIC CELLS” (Universite Paris Descartes, priority 2010, published 2013) are described below.

The experiment relates to binding of 125I-HCGβ to monoclonal antibody FBT11-II. The experiment can be described thus: Competitive inhibition assay with synthetic peptides (125I-HCGβ tracer). The settings on record: increasing concentrations of unlabeled peptide; 4° C. for 18 h; FIG. 2. The method, then:
Competitive inhibition assays were performed as previously described (20). Briefly, ^125I labelled HCGβ was employed as the tracer. All experiments were performed in 50 mM phosphate buffer, pH 7.5, containing 154 mM NaCl, 0.02% sodium azide, and 1% bovine serum albumin. First, we determined the dilution of FBT11-II which produced a 50% binding to ^125I-HCGβ (30,000 cpm) in the absence of peptide. Then, competitive inhibition assays were performed with the defined dilution of antibody. Displacement curves were generated in the presence of increasing concentrations of unlabeled peptides as follows: 100 μl of ^125I—HCGIβ, 100 μl of monoclonal antibody, and 50 μl of the competitive inhibitor were incubated simultaneously at 4° C. for 18 h. The antigen-antibody complex was then precipitated by adding normal human serum diluted (1:3) in phosphate buffer (100 μl) and 1 ml of 20% polyethylene glycol. After centrifugation, the pellet was counted.
Since it was previously shown that FBT11 recognizes residues 1 through 7 and 82 through 92 of the free HCGβ subunit (20), in this study we examined whether the differences in the N-terminal sequence of HCGβ altered the recognition of FBT11-II. We performed inhibition assays with peptides spanning residues 1 through 7 to determine mAb FBT11-II specificity. We used three peptides analogous to sequences 1-7 of HCGβ encoded by type I gene (SREMLRP, SEQ ID NO: 4), 1-7 of HCGβ encoded by type II genes (SKEPLRP, SEQ ID NO: 3) and 1-7 of LHβ (SREPLRP, SEQ ID NO: 5) (FIG. 2). First, we determined the dilution of FBT11-II which produced a 50% binding to ^125I-HCGβ in the absence of peptide. Then, competitive inhibition assays were performed with the defined dilution of antibody. Displacement curves were generated in the presence of increasing concentrations of unlabeled peptides.

Turning to “SREMLRP (Synthetic 7-mer peptides corresponding to residues 1 through 7 of HCGbeta encoded by type I gene beta7)”, the “Inhibition of 125I-HCGβ binding to antibody FBT11-II (displacement of bound tracer)” value was “unable to inhibit”. The value for “SREPLRP (Synthetic 7-mer peptides corresponding to residues 1 through 7 of the LHbeta gene)” was “to a lesser degree than SKEPLRP”. Then “SKEPLRP (Synthetic 7-mer peptides corresponding to residues 1 through 7 of HCGbeta encoded by type II genes beta3, beta5 and beta8)”, with “highest potency”.
